Among the data in patent US9359352B2, “Substituted benzimidazoles as PI3 kinase inhibitors” (Intellikine LLC, priority 2010, dated 2016) are IC50 values, retold here.

Holding throughout (assay type): biochemical
One experiment addresses T1, mTOR C (Homo sapiens, UniProt P42345).
T1 construct: purchased Invitrogen
As to the kind of experiment: mTOR kinase inhibition assay (mTORC IC50). As to conditions: in vitro. Here is the method: The cross-activity or lack thereof of one or more compounds of the present invention against mTor can be measured according to any procedures known in the art or methods disclosed below. The compounds described herein can be tested against recombinant mTOR (Invitrogen) in an assay containing 50 mM HEPES, pH 7.5, 1 mM EGTA, 10 mM MgCl2, 2.5 mM, 0.01% Tween, 10 μM ATP (2.5 μCi of […]), and 3 μg/mL BSA. Rat recombinant PHAS-1/4EBP1 (Calbiochem; 2 mg/mL) is used as a substrate. Reactions are terminated by spotting onto nitrocellulose, which is washed with 1M NaCl/1% phosphoric acid (approximately 6 times, 5-10 minutes each). Sheets are dried and the transferred radioactivity quantitated by phosphorimaging.
Other kits or systems for assaying mTOR activity are commercially available. For instance, one can use Invitrogen's LanthaScreen™ Kinase assay to test the inhibitors of mTOR disclosed herein. This assay is a time resolved FRET platform that measures the phosphorylation of GFP labeled 4EBP1 by mTOR kinase. The kinase reaction is performed in a white 384 well microtitre plate. The total reaction volume is 20 ul per well and the reaction buffer composition is 50 mM HEPES pH7.5, 0.01% Polysorbate 20, 1 mM EGTA, 10 mM MnCl2, and 2 mM DTT. In the first step, each well receives 2 ul of test compound in 20% dimethylsulphoxide resulting in a 2% DMSO final concentration. Next, 8 ul of mTOR diluted in reaction buffer is added per well for a 60 ng/ml final concentration. To start the reaction, 10 ul of an ATP/GFP-4EBP1 mixture (diluted in reaction buffer) is added per well for a final concentration of 10 μM ATP and 0.5 μM GFP-4EBP1. The plate is sealed and incubated for 1 hour at room temperature. The reaction is stopped by adding 10 ul per well of a Tb-anti-pT46 4EBP1 antibody/EDTA mixture (diluted in TR-FRET buffer) for a final concentration of 1.3 nM antibody and 6.7 mM EDTA. The plate is sealed, incubated for 1 hour at room temperature, and then read on a plate reader set up for LanthaScreen™ TR-FRET. Data is analyzed and IC50s are generated using GraphPad Prism 5.

The target in another experiment is T2, PI3K α (Homo sapiens, UniProt P42336).
T2 construct: purchased Upstate
T2 sequence (P42336 whole entry): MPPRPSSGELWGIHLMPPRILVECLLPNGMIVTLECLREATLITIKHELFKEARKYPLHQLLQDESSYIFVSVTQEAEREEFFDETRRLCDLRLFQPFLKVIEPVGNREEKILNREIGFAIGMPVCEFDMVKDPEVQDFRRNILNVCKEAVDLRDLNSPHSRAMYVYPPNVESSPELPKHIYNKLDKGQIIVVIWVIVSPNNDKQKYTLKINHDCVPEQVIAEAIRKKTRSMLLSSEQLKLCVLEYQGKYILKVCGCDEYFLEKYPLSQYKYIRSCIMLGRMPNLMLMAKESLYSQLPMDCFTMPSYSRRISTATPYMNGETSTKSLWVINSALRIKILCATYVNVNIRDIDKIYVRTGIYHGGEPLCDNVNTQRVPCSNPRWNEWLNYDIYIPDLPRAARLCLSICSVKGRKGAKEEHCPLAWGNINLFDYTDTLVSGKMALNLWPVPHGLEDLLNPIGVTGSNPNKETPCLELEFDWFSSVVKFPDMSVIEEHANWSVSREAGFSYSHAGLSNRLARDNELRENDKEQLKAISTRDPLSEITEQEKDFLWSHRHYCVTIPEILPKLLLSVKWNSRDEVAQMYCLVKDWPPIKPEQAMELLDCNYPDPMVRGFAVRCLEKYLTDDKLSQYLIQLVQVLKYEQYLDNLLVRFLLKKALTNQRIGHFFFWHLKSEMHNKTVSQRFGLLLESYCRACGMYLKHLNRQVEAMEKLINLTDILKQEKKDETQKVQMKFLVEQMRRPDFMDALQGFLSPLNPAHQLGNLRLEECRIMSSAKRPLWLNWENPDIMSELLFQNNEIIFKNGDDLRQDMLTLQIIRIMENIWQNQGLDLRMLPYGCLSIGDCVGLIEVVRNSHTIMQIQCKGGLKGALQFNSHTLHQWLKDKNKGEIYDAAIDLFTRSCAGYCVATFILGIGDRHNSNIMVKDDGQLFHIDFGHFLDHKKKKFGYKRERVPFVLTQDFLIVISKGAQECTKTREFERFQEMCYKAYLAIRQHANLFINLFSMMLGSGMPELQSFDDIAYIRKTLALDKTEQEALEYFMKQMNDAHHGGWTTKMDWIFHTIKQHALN
T2 sequence (P27986 whole entry partner): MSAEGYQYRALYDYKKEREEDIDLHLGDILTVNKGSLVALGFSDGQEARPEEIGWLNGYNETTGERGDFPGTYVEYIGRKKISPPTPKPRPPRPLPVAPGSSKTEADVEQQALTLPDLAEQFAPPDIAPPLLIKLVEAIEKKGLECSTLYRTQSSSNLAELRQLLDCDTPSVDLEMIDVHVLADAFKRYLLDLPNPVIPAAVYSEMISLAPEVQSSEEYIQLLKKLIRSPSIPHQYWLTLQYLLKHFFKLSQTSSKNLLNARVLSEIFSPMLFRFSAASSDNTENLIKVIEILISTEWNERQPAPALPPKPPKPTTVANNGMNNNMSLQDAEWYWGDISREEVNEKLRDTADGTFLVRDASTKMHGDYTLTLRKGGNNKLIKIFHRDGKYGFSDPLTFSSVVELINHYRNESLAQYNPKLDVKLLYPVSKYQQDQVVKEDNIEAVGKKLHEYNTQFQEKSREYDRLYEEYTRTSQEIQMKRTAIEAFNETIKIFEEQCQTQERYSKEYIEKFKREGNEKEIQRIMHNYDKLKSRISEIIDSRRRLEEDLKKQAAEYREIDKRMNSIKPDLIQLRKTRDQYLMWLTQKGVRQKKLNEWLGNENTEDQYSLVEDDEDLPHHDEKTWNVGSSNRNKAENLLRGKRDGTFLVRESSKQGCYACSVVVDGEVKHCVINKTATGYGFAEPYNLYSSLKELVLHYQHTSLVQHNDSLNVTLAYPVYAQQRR
Put plainly: PI 3-Kinase HTRF inhibition assay, PI3K α. As to conditions: in vitro; read-out: PI3K α IC50. Background: In TR-FRET formats the signal depends on donor and acceptor labels being close together.

In another experiment the target is T3, PI3K β (Homo sapiens, UniProt P42338).
T3 construct: purchased Upstate
T3 sequence (P42338 whole entry): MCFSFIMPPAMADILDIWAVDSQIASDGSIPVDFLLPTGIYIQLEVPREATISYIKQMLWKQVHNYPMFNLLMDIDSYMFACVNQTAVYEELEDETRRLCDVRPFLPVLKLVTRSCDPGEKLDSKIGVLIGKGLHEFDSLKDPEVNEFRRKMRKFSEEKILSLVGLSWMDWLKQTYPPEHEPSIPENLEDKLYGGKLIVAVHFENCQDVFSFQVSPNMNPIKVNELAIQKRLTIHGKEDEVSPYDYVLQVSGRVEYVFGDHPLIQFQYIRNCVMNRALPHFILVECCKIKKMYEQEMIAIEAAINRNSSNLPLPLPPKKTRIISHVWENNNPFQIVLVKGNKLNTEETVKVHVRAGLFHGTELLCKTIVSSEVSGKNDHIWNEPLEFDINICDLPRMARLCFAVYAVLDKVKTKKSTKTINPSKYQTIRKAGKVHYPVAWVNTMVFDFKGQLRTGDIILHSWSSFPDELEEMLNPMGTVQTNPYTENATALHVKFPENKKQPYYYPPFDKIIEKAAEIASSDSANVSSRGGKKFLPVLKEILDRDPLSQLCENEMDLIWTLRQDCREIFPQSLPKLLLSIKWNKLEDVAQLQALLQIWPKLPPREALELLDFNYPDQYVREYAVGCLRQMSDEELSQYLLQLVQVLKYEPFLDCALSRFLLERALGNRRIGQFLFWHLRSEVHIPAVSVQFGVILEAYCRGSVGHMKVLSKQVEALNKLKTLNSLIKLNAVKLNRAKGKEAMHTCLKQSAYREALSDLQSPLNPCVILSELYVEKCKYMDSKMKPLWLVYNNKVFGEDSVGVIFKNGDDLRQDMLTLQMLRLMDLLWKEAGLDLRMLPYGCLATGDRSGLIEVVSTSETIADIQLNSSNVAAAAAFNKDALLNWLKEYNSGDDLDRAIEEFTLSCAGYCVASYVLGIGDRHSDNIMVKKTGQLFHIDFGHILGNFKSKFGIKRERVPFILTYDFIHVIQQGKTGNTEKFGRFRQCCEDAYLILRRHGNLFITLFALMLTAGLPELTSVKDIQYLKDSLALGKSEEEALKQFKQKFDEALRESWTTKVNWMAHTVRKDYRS
T3 sequence (P27986 whole entry partner): as the sequence (P27986 whole entry partner) above
As to the kind of experiment: PI 3-Kinase HTRF inhibition assay, PI3K β. As to conditions: in vitro.

The next experiment has as its target T4, PI3K δ (Homo sapiens, UniProt O00329).
T4 construct: purchased Upstate
As to the kind of experiment: PI 3-Kinase HTRF inhibition assay, PI3K δ. The settings on record: in vitro; read-out: PI3K δ IC50.

Another experiment has as its target T5, PI3K γ (Homo sapiens, UniProt P48736).
T5 construct: purchased Upstate
As to the kind of experiment: PI 3-Kinase HTRF inhibition assay, PI3K γ. The settings on record: in vitro.

T5 sequence (P48736 whole entry): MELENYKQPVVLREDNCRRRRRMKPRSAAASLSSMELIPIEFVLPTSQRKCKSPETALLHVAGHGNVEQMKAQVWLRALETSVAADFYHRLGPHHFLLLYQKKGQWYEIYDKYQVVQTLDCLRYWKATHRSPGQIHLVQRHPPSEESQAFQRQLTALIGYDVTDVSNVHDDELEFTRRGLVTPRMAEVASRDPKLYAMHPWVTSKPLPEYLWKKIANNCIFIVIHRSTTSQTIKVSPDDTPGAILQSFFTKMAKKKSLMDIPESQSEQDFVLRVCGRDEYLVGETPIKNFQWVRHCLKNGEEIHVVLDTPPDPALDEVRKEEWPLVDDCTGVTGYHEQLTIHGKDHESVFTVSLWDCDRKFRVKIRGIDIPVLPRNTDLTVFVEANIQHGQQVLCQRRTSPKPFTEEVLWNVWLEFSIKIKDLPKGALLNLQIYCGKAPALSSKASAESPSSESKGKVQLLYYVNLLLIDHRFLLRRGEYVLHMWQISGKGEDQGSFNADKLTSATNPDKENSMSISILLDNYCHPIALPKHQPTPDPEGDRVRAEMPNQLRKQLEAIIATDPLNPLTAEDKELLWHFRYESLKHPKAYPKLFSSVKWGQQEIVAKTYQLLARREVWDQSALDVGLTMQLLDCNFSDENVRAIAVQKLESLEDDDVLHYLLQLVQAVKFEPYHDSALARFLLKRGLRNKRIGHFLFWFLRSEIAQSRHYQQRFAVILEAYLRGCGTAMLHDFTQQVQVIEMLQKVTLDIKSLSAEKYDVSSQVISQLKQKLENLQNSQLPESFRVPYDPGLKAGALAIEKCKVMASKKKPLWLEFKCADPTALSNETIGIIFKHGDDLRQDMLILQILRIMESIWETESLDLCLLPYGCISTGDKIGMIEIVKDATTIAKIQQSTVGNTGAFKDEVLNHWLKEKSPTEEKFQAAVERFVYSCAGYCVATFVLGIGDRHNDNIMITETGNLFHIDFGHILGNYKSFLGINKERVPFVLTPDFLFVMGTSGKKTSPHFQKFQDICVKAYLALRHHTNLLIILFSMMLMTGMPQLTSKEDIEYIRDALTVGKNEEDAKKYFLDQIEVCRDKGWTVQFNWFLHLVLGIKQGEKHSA
T4 sequence (O00329 whole entry): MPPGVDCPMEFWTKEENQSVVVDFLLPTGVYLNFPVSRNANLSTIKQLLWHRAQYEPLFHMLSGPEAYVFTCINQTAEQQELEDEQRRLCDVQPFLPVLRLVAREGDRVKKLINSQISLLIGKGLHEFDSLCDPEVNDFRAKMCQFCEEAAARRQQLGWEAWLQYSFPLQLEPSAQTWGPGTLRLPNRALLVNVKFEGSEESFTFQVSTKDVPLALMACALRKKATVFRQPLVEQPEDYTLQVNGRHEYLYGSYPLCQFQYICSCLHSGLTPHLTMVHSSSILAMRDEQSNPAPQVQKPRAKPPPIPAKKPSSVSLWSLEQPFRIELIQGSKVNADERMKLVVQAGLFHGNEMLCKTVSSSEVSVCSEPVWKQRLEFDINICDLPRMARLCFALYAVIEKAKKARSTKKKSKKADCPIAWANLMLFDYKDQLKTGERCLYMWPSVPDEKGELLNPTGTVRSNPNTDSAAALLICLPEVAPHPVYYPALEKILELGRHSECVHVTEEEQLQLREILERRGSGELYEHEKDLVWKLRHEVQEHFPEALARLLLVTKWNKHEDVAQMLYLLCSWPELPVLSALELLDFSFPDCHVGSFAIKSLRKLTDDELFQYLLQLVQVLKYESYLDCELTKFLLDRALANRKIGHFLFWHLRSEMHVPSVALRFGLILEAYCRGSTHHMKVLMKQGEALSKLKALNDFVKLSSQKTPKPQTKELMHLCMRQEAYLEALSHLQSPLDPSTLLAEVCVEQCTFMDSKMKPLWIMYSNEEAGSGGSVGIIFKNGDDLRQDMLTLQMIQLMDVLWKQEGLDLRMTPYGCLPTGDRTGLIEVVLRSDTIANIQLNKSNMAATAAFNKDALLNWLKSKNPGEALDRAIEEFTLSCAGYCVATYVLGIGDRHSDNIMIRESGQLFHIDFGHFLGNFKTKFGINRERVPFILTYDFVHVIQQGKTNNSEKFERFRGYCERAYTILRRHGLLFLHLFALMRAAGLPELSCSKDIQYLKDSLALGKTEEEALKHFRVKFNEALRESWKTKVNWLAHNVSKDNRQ
T4 sequence (P27986 whole entry partner): as the sequence (P27986 whole entry partner) above

With `Nc1nc2cc(-c3ccc4ncc(N5C6CCC5COC6)nc4n3)ccc2o1` [Compound 19], the IC50 – broadly, the concentration needed to halve the response being measured – is above 10 µM on mTOR C; below 0.1 µM at PI3K α; above 10 µM against PI3K β; above 10 µM at PI3K δ; below 0.1 µM at PI3K γ.

Consider `CN1CC2CN(c3cnc4ccc(-c5ccc6oc(N)nc6c5)nc4n3)CC2C1` (stereo not drawn) [Compound 78], for which the IC50 was above 10 µM against mTOR C; below 0.1 µM on PI3K α; below 1 µM against PI3K β; below 1 µM at PI3K δ; below 10 µM against PI3K γ.

For `CN1CC2CN(c3cnc4ccc(-c5ccc6oc(N)nc6c5)nc4c3)CC2C1` (stereo not drawn) [Compound 79], the IC50 was above 10 µM on mTOR C; below 0.1 µM at PI3K α; below 1 µM against PI3K β; below 1 µM on PI3K δ; below 1 µM against PI3K γ.
